{"source": "patent US10494380B2", "about": "“Nitrogen-containing tricyclic derivatives having HIV replication inhibitory activity” (priority 2015, dated 2019)", "key": {"HIV": {"tested_on": "HIV", "assay_type": "cell-based", "details": "EC50 in the presence of human serum (25%) versus without human serum, MT-4 cells", "summary_of_the_method": "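HIV-infected MT-4 cells (3×10^4/well, infected 1 h at 37° C) are grown 4 days with compound that was first mixed 1 h with human serum or with medium only. Potency shift is the EC50 with serum divided by the EC50 without serum.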"}, "CYP3A4": {"target": "CYP3A4 (Homo sapiens (Human), UniProt P08684)", "sequence (P08684 whole entry)": "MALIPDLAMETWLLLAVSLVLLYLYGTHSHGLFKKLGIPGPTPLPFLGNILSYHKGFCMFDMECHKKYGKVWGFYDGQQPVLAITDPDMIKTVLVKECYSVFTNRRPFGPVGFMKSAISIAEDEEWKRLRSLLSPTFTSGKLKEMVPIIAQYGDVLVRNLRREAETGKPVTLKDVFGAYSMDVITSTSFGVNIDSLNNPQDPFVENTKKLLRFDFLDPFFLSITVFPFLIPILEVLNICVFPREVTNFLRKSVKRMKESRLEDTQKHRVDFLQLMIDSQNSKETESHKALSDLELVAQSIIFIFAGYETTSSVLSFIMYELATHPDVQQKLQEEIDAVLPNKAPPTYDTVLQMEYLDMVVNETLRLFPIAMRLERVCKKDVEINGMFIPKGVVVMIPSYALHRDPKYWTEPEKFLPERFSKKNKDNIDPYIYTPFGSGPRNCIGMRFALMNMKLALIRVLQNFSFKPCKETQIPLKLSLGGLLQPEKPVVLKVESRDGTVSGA", "assay": "CYP3A4 (MDZ) MBI test (Test Example 6)", "details": "pooled human liver microsomes, midazolam 1-hydroxylation, preincubation 0 or 30 min"}, "CYP2C9": {"target": "CYP2C9 (Homo sapiens (Human), UniProt P11712)", "sequence (P11712 whole entry)": "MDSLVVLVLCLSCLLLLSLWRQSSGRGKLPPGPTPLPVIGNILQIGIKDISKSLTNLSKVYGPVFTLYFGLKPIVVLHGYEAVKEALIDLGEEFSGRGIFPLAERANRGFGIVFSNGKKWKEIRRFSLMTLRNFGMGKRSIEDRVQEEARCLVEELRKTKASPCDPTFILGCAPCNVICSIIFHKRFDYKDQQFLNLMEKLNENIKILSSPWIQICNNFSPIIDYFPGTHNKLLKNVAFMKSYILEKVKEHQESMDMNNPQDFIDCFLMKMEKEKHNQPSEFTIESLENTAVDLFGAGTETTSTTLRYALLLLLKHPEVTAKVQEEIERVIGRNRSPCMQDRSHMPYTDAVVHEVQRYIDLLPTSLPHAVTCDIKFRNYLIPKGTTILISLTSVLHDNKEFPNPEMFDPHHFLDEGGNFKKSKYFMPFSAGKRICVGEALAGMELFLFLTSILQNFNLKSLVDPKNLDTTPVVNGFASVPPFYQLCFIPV", "assay": "CYP inhibition assay, tolbutamide methyl-hydroxylation (Test Example 4)", "assay_type": "in vitro ADME", "details": "pooled human hepatic microsome, 100 μmol/L tolbutamide, 15 minutes, 37° C.", "description": "Using commercially available pooled human hepatic microsome, and employing, as markers, 7-ethoxyresorufin O-deethylation (CYP1A2), tolbutamide methyl-hydroxylation (CYP2C9), mephenytoin 4′-hydroxylation (CYP2C19), dextromethorphan O-demethylation (CYP2D6), and terfenadine hydroxylation (CYP3A4) as typical substrate metabolism reactions of human main five CYP enzyme forms (CYP1A2, 2C9, 2C19, 2D6, 3A4) an inhibitory degree of each metabolite production amount by a test compound was assessed.\nThe reaction conditions were as follows: substrate, 0.5 μmol/L ethoxyresorufin (CYP1A2), 100 μmol/L tolbutamide (CYP2C9), 50 μmol/L S-mephenytoin (CYP2C19), 5 μmol/L dextromethorphan (CYP2D6), 1 μmol/L terfenedine (CYP3A4); reaction time, 15 minutes; reaction temperature, 37° C.; enzyme, pooled human hepatic microsome 0.2 mg protein/mL; test drug concentration, 1, 5, 10, 20 μmol/L (four points).\nEach five kinds of substrates, human hepatic microsome, and a test drug in 50 mmol/L Hepes buffer as a reaction solution was added to a 96-well plate as the composition ad described above, NADPH, as a coenzyme was added to initiate metabolism reactions as markers and, after the incubation at 37° C. for 15 minutes, a methanol/acetonitrile=1/1 (V/V) solution was added to stop the reaction. After the centrifugation at 3000 rpm for 15 minutes, resorufin (CYP1A2 metabolite) in the supernatant was quantified by a fluorescent multilabel counter and tolbutamide hydroxide (CYP2C9 metabolite), mephenytoin 4′ hydroxide (CYP2C19 metabolite), dextrorphan (CYP2D6 metabolite), and terfenadine alcohol (CYP3A4 metabolite) were quantified by LC/MS/MS."}, "[1]": {"tested_on": "T125A mutant virus (HIV-1 NL-432 recombinant molecular clone, IN gene)", "assay": "HIV replication inhibition assay against integrase 124/125 mutant virus (Test Example 2)", "assay_type": "cell-based", "summary_of_the_method": "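EC50 is the compound concentration blocking half of virus-induced cell death, measured by MTT (OD 560 nm, 690 nm reference) after 4 days at 37 °C. Integrase 124/125 mutant NL-432 virus from transfected 293T cells (60 pfu) was added to 2.5×10^4 MT-4 cells with compound.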"}, "HIV (HTLV-IIIB strain)": {"tested_on": "HIV (HTLV-IIIB strain)", "assay": "HIV replication inhibition assay (Test Example 1; MT-4 cells, MTT)", "assay_type": "cell-based", "details": "MT-4 cells, MTT; for EC90: read-out: EC90; for EC50: read-out: EC50", "description": "HIV (HTLV-IIIB strain) persistent infected human T cell strain Molt-4 clone8 was cultured in RPMI-1640 medium supplemented with 10% fetal bovine serum and the supernatant was filtered, then the virus titer was measured and stored at −80° C. Each anti-human immunodeficiency virus active substance was diluted with the above culture medium to the designated concentration, which was dispensed into 96-well microtiter plate by 50 μL. Next, 100 μL of MT-4 cell suspension (2.5×10^4 cells) was dispensed into each well, then 50 μl of the above HIV-containing supernatant diluted with the above culture medium was added thereto (60 pfu (plaque forming unit)).\nCell mixture was cultured at 37° C. in CO2 incubator for four days, then 30 μL of MTT (3-(4,5-dimethylthiazole-2-yl)-2,5-diphenyltetrazolyum bromide) reagent (5 mg/mL in PBS) was added to all wells followed by incubation for 1 hour. In this step, MTT was reduced to insoluble formazan in living cells. To elute generated formazan 150 μL of the culture supernatant was removed from all wells, then 150 μL of cell lysis solution (10% Triton X-100 and 0.4% (v/v)-HCl containing isopropanol) was added thereto, followed by shaking with a plate mixer. The formazan was measured with micro plate reader at OD: 560 nm and 690 nm (reference wavelength) and the result was compared with the reference wells. EC50 and EC90 mean the compound concentration at which cytotoxicity caused by virus infection is inhibited 50% and 90%, respectively."}, "[2]": {"tested_on": "sheep red blood cells (RBC)", "assay": "Photohemolysis test (Test Example 13)", "assay_type": "cell-based", "details": "0.0008 to 0.1 w/v %, 10 J/cm2 UV-irradiation (290-400 nm)", "source_text": "Aliquots of sheep red blood cells (RBC) suspension prepared with medium to make a 2.5 v/v % concentration are dispensed into microplates. The compound of the present invention was desolved with a vehicle to make target concentrations and then these solutions were immediately added (in concentrations of 0.0008 to 0.1 w/v %) into the microplates. The mixtures on the microplates were exposed to 10 J/cm2 of UV-irradiation (UV-A and UV-B, 290-400 nm) with a GL20SE lamp (SANKYO DENKI) and a FL20S-BLB lamp (Panasonic). After the UV-irradiation, the mixtures were centrifuged. Aliquots of supernatant were transferred to a microplate. Absorbance of the supernatants was measured at 540 nm and 630 nm for judgement of the potential of phototoxicity. In the study, two endpoints were evaluated in biomembrane impairment (% of photohemolysis index; PI) and hyperoxidation of lipid membrane (methemoglobin formation; met-Hb) with the absorbance at 540 nm and 630 nm, respectively. PI and met-Hb were assessed based on the negative criteria (−), PI<10% and changes in absorbance at 630 nm<0.05, respectively. All else was judged as positive (+)."}, "[3]": {"details": "Human immunodeficiency virus 1, MT4, read-out: EC50 against T125A mutant virus, T125A mutant virus (HIV-1 NL-432 IN gene), MT-4 cells, MTT"}, "[4]": {"details": "HIV (HTLV-IIIB strain), four days"}, "[5]": {"details": "T125A mutant virus (HIV-1 NL-432 IN gene), MT-4 cells, MTT, read-out: EC50 against T125A mutant virus"}, "[6]": {"details": "Human immunodeficiency virus 1, MT4, 96 h, HIV (HTLV-IIIB strain), four days"}}, "note": "Where two headings read alike, the source gives them in different places.", "data": [{"compound": "Cc1c([C@H](OC(C)(C)C)C(=O)O)c(-c2ccc(Cl)cc2)c2cc(C)n3c2c1N(c1ncc2ccccc2n1)CC3", "note": "[Compound I-157]", "values": [{"measurement": "Potency shift value", "setting": "HIV", "value": 12}, {"measurement": "CYP3A4 (MDZ) MBI, shifted IC", "setting": "CYP3A4", "value": "(−) (When a shifted IC was 1.0 or less, this was defined as negative)"}, {"measurement": "IC50", "setting": "CYP2C9", "value": "> 20000", "unit": "nM"}, {"measurement": "EC50", "setting": "[1]; [3]", "value": 12, "unit": "nM"}]}, {"compound": "Cc1nc(N2CCn3c(C)cc4c(-c5ccc(Cl)cc5)c([C@H](OC(C)(C)C)C(=O)O)c(C)c2c43)no1", "note": "[Compound I-176]", "values": [{"measurement": "Potency shift value", "setting": "HIV", "value": 12}, {"measurement": "EC90", "setting": "HIV (HTLV-IIIB strain); [4]", "value": 5.6, "unit": "nM"}, {"measurement": "EC50", "setting": "HIV (HTLV-IIIB strain); HIV HTLV-IIIB strain, cultured four days", "value": 2.3, "unit": "nM"}, {"measurement": "CYP3A4 (MDZ) MBI, shifted IC", "setting": "CYP3A4", "value": "(−) (When a shifted IC was 1.0 or less, this was defined as negative)"}, {"measurement": "EC50", "setting": "[1]; [5]", "value": 4.6, "unit": "nM"}, {"measurement": "Photohemolysis test, potential of phototoxicity (PI and met-Hb)", "setting": "[2]", "value": "(−) (negative criteria (−), PI<10% and changes in absorbance at 630 nm<0.05, respectively)"}]}, {"compound": "CCOc1cnc(N2CCn3c(C)cc4c(-c5ccc(Cl)cc5)c([C@H](OC(C)(C)C)C(=O)O)c(C)c2c43)nc1", "note": "[Compound I-181]", "values": [{"measurement": "Potency shift value", "setting": "HIV", "value": 17}, {"measurement": "EC90", "setting": "HIV (HTLV-IIIB strain); [6]", "value": 2.3, "unit": "nM"}, {"measurement": "EC50", "setting": "HIV (HTLV-IIIB strain); Human immunodeficiency virus 1, MT4, 96 h, HIV HTLV-IIIB strain, cultured four days", "value": 1.4, "unit": "nM"}, {"measurement": "CYP3A4 (MDZ) MBI, shifted IC", "setting": "CYP3A4", "value": "(−) (When a shifted IC was 1.0 or less, this was defined as negative)"}, {"measurement": "IC50", "setting": "CYP2C9", "value": "> 20000", "unit": "nM"}, {"measurement": "EC50", "setting": "[1]; [3]", "value": 3.5, "unit": "nM"}, {"measurement": "Photohemolysis test, potential of phototoxicity (PI and met-Hb)", "setting": "[2]", "value": "(−) (negative criteria (−), PI<10% and changes in absorbance at 630 nm<0.05, respectively)"}]}, {"compound": "COc1cnc(N2CCn3c(C)cc4c(-c5ccc(C)cc5)c([C@H](OC(C)(C)C)C(=O)O)c(C)c2c43)nc1", "note": "[Compound I-189]", "values": [{"measurement": "Potency shift value", "setting": "HIV", "value": 22}, {"measurement": "EC50", "setting": "HIV (HTLV-IIIB strain); [6]", "value": 1.6, "unit": "nM"}, {"measurement": "EC90", "setting": "HIV (HTLV-IIIB strain); [6]", "value": 3.2, "unit": "nM"}, {"measurement": "CYP3A4 (MDZ) MBI, shifted IC", "setting": "CYP3A4", "value": "(−) (When a shifted IC was 1.0 or less, this was defined as negative)"}, {"measurement": "IC50", "setting": "CYP2C9", "value": "> 20000", "unit": "nM"}, {"measurement": "EC50", "setting": "[1]; [3]", "value": 3.1, "unit": "nM"}, {"measurement": "Photohemolysis test, potential of phototoxicity (PI and met-Hb)", "setting": "[2]", "value": "(−) (negative criteria (−), PI<10% and changes in absorbance at 630 nm<0.05, respectively)"}]}, {"compound": "Cc1cnc(N2CCn3c(C)cc4c(-c5ccc(Cl)cc5)c([C@H](OC(C)(C)C)C(=O)O)c(C)c2c43)nc1", "note": "[Compound I-190]", "values": [{"measurement": "Potency shift value", "setting": "HIV", "value": 21}, {"measurement": "EC50", "setting": "HIV (HTLV-IIIB strain); [6]", "value": 0.83, "unit": "nM"}, {"measurement": "EC90", "setting": "HIV (HTLV-IIIB strain); [6]", "value": 1.3, "unit": "nM"}, {"measurement": "CYP3A4 (MDZ) MBI, shifted IC", "setting": "CYP3A4", "value": "(−) (When a shifted IC was 1.0 or less, this was defined as negative)"}, {"measurement": "IC50", "setting": "CYP2C9", "value": "> 20000", "unit": "nM"}, {"measurement": "EC50", "setting": "[1]; [3]", "value": 2.1, "unit": "nM"}, {"measurement": "Photohemolysis test, potential of phototoxicity (PI and met-Hb)", "setting": "[2]", "value": "(−) (negative criteria (−), PI<10% and changes in absorbance at 630 nm<0.05, respectively)"}]}, {"compound": "Cc1ccc(-c2c([C@H](OC(C)(C)C)C(=O)O)c(C)c3c4c2cc(C)n4CCN3c2ncc(OCCN(C)C)cn2)cc1", "note": "[Compound I-220]", "values": [{"measurement": "Potency shift value", "setting": "HIV", "value": 3.7}, {"measurement": "EC50", "setting": "HIV (HTLV-IIIB strain); [4]", "value": 6, "unit": "nM"}, {"measurement": "EC90", "setting": "HIV (HTLV-IIIB strain); [4]", "value": 11, "unit": "nM"}, {"measurement": "CYP3A4 (MDZ) MBI, shifted IC", "setting": "CYP3A4", "value": "(−) (When a shifted IC was 1.0 or less, this was defined as negative)"}, {"measurement": "IC50", "setting": "CYP2C9", "value": "> 20000", "unit": "nM"}, {"measurement": "EC50", "setting": "[1]; [5]", "value": 14, "unit": "nM"}, {"measurement": "Photohemolysis test, potential of phototoxicity (PI and met-Hb)", "setting": "[2]", "value": "(−) (negative criteria (−), PI<10% and changes in absorbance at 630 nm<0.05, respectively)"}]}]}
